{"source": "patent EP4628074A1", "about": "“N-PALMITOYLETHANOLAMIDE FOR USE IN COMBINATION WITH A NON-STEROIDAL ANTI-INFLAMMATORY DRUG IN THE TREATMENT OF INFLAMMATORY PAIN” (priority 2024, dated 2025)", "key": {"[1]": {"tested_on": "collagen-induced arthritis", "experiment": "Arthritis severity score in collagen-induced arthritis (CIA) (Experiment 2)", "type": "in vivo, Female Lewis rats", "conditions": "PEA 30 mg/kg; for Pr > F: 2x2 factor analysis on severity of arthritis, ibuprofen 5 mg/kg, PEA*IBU = interaction (synergy)", "experimental": "(§1) Rheumatoid arthritis is a disease characterized by inflammatory pain, in which the involved joints present swelling, stiffness and often erosive processes. Female Lewis rats were maintained on a 12/12 hour light/dark cycle, at constant temperature and humidity and acclimated for 1 week, with free access to water and standard diet. […] Arthritis score, change in paw volume (mL), and change in body weight (g) were measured as indicators of inflammatory pain. Arthritis severity was measured every other day starting on day 25, using the following score: 0 = no sign of arthritis; 1 = swelling and/or redness of the paw or toe; 2 = two joints involved; 3 = more than two joints involved; and 4 = severe arthritis of the entire paw and toes. The arthritis index for each subject was calculated by adding the four scores of the individual paws. The change in paw volume compared to day 21 was assessed every two days by plethysmometry (Ugo Basile) starting from day 25. The change in weight was measured for each animal on day 21 and then every two days starting from day 25.\n(§2) The chosen inflammatory pain indicators were analyzed via Generalized Linear Model (GLM) followed by post-hoc analysis based on Tukey-Kramer correction for multiple comparisons. […] All analyzes were performed using SAS software, version 9.4 (SAS Institute, Cary, NC, USA). P value < 0.05 was considered significant."}, "[2]": {"tested_on": "inflammatory pain induced by CFA", "experiment": "Incapacitance test (spontaneous pain), CFA-induced inflammatory pain, chronic (14 days) oral treatment (Experiment 4)", "type": "in vivo, male Sprague-Dawley rats", "conditions": "2x2 ANOVA on percentage inhibition of spontaneous pain, interaction line = synergy", "experimental": "The inflammatory pain model was induced by injecting Complete Freund's Adjuvant (CFA, Sigma-Aldrich) into the tibiotarsal joint of male Sprague-Dawley rats (Charles River), housed in 26x41 cm cages at the Animal Husbandry Centre. Laboratory Animals (Ce.S.A.L.) of the University of Florence with a 12-hour circadian cycle, water and food (standard diet) \"ad libitum\", temperature of 23±1°C. Intra-articular injection occurred according to the method described by Butler et al. (Pain 48:73-81,1992) after light anesthesia with 2% isoflurane. The skin surrounding the injection site was sterilized with 75% ethyl alcohol. Then a 28-gauge needle was inserted into the joint cavity, through which a volume of 50 µl of CFA was injected. The animals were then divided into the following treatment groups (N = 8): • Sham (control, a volume of physiological solution equal to that used for CFA animals was injected into the tibiotarsal joint) • Vehicle (CMC 1%) • Diclofenac (3 mg/kg) • Diclofenac (30 mg/kg) • PEA (10 mg/kg) • PEA-OXA (10 mg/kg) [formula] [formula] [formula] [formula]\nThe tested molecules - used both individually and in combination - were suspended in 1% CMC and administered orally daily from day 1 to day 14 (chronic treatment). […] Behavioral tests were conducted 24 hours after the last administration, in order to highlight the effect of repeated treatment on joint pain. Inflammatory pain induced by CFA injection was measured by paw pressure test. […] The nociceptive threshold has been expressed as the force to which the animal reacts by retracting its paw or vocalizing (Leighton et al., Br J Pharmacol 93:553-560,1988). An analgesimeter (Ugo Basile, Varese) was used for this purpose, which allows the mechanical hyperalgesia to be quantified. Furthermore, spontaneous pain was assessed using the incapacitance test, which evaluates variations in postural balance through the \"Incapacitance\" device (Linton Instrumentation, UK), a scale which simultaneously, but separately, measures the force imparted by each paw (Fernandes et al., Arthritis Res Ther. 2016 Jan 11;18:7).\nBriefly, rats were trained to stand on their hind legs in a box with an inclined plane (65° to the horizontal), placed above the \"Incapacity\" apparatus. […] The results were expressed in terms of \"painful potency\", defined as percentage inhibition (mean ± SEM) of inflammatory pain induced by CFA and calculated according to the formula: 100* (treatm-VEIC)/(CTRL-VEIC).\"\nThe effect on pain was analyzed using Generalized Linear Model (GLM) followed by post-hoc analysis based on Tukey-Kramer correction for multiple comparisons. The results of the analyses were expressed as mean ± standard error of the mean (SEM). […]"}, "[3]": {"conditions": "in vivo; cited from earlier work"}, "[4]": {"tested_on": "inflammatory pain induced by sub-plantar injection of carrageenan", "experiment": "Von Frey filaments, inflammatory pain induced by sub-plantar injection of carrageenan (Experiment 3)", "type": "in vivo, adult male Sprague-Dawley rats", "experimental": "The experimental inflammatory pain model was induced through a sub-plantar injection of carrageenan (CAR) saline solution (0.1 mL of a 1% suspension of CAR in 0.85% saline). […] The PEA used in this experiment was in unprocessed (native) form. Von Frey filaments were used to evaluate pain, recording for each animal the mechanical tolerance threshold, i.e. the pressure (expressed in grams) endured before retracting the paw. The measurement took place using an analgesimeter (Ugo Basile, Comerio, Varese, Italy) and was conducted before the sub-plantar injection of the CAR and at the time of maximum damage (5 hours later).\nThe effect on pain was analyzed using Generalized Linear Model (GLM) followed by post-hoc analysis based on Tukey-Kramer correction for multiple comparisons. […] All analyses were performed using SAS software, version 9.4 (SAS Institute, Cary, NC, USA). P value < 0.05 was considered significant."}, "[5]": {"tested_on": "collagen-induced arthritis", "experiment": "Body weight change in collagen-induced arthritis (CIA) (Experiment 2)", "type": "in vivo, Female Lewis rats", "conditions": "PEA 30 mg/kg; for Pr > F: 2x2 factorial analysis on weight change, ibuprofen 5 mg/kg, PEA*IBU = interaction (synergy)", "experimental": "as §1, §2"}}}
{"smiles": "CCCCCCCCCCCCCCCC(=O)NCCO", "note": "[PEA, N-palmitoylethanolamide]", "values": [{"measurement": "Pr > F", "setting": "[1]; Giorno 33", "result": "<0,0001"}, {"measurement": "Pr > F", "setting": "[1]; Giorno 35", "result": "<0,0001"}, {"measurement": "effect on arthritis score", "setting": "[1]; day 31 up to end of study (day 35), oral from day 25, low-dose IBU 5 mg/kg, high-dose IBU 30 mg/kg", "result": "had no effect"}, {"measurement": "Pr > F", "setting": "[2]; PEA 5 mg/kg + diclofenac 3 mg/kg compared with diclofenac 3 mg/kg and PEA 10 mg/kg alone", "result": "<0,0001"}, {"measurement": "Pr > F", "setting": "[2]; PEA 10 mg/kg, diclofenac 3 mg/kg", "result": "0,0084"}, {"measurement": "dose free of acute and sub-chronic toxicity", "setting": "[3]", "result": "≥ 1000", "unit": "mg/kg daily"}, {"measurement": "Pr > F", "setting": "[4]; 2x2 factorial analysis on tolerance threshold (Von Frey), native PEA 100 mg/kg, ibuprofen 5 mg/kg, PEA*Ibu = interaction (synergy)", "result": "0,0046"}, {"measurement": "mechanical tolerance threshold compared to the vehicle-treated group", "setting": "[4]; single oral administration 30 minutes before carrageenan, measured 5 hours later, unprocessed (native) PEA 100 mg/kg and/or ibuprofen 5 mg/kg", "result": "inactive dose"}, {"measurement": "Pr > F", "setting": "[5]; 6° giorno di trattamento (G31)", "result": "<0,0001"}, {"measurement": "Pr > F", "setting": "[5]; 8° giorno di trattamento (G33)", "result": "<0,0001"}, {"measurement": "Pr > F", "setting": "[5]; 10° giorno di trattamento (G35)", "result": "<0,0001"}, {"measurement": "effect on weight reduction induced by arthritis pain", "setting": "[5]; from the 4th day of treatment (day 29) for the entire observation period, low-dose ibuprofen 5 mg/kg, high-dose IBU 30 mg/kg", "result": "neither PEA nor low-dose ibuprofen exerted any effect"}]}
